Test results: US20150065888A1, “METHOD AND APPARATUS FOR OBTAINING VASODILATION DATA REPRESENTING CUTANEOUS LOCAL THERMAL HYPEREMIA RESPONSE OF A SUBJECT” (NEW CHINESE BIOTECHNOLOGY CORPORATION LTD, priority 2012, published 2015)

Tested on: cutaneous local thermal hyperemia response
Test: Cutaneous local thermal hyperemia test by laser Doppler flowmetry before and after chemical intervention (oral β-blocker)
Assay type: in vivo, human
Conditions: subject with panic disorder, 30 minutes after oral propranolol 10 mg
Procedure: The participants were supine during the entire test period. Cutaneous blood flow was measured by LDF (Moor DRT4, Moor Instruments Ltd, Axminster, Devon, UK). For each measurement, blood pressure was recorded continuously with a non-invasive blood pressure monitor (CareTaker, Empirical Technologies Corporation, Charlottesville, Va., USA) on the middle finger of the dominant hand throughout the procedures.
Blood flow was recorded simultaneously on the upper one-fourth of the bilateral forearm using LDF (DP12-V2 probe, 2 channels, length: 12 mm, diameter 1.5 mm; Moor Instruments Ltd.), and two recording sites were located at the radial half of the flexor and extensor aspects of the forearm, which were located according to a predefined rule. The probe was mounted to a probe holder to hold the probe in position. The extensor and flexor recording sites were located along the line between the extensor and flexor aspects of the lateral epicondyle of the humerus, respectively, and the lateral side of the styloid process of radius. The same sites were measured bilaterally with the flexor and extensor aspects in a random sequence. The recording sites were kept thermally neutral at 33° C. by a heater (SH02-SHP2 probe, Moor Instruments Ltd.) for 5 minutes for the baseline measurement, and then the temperature was increased to 42° C. by 1° C./10 seconds and maintained at 42° C. for up to 5 minutes. After completing the measurements, the holders were maintained in situ, and all of the procedures were repeated with the same recording sequence 45 minutes after the first measurement. The holders were then removed without marking after the first day of the experiment. The same procedures were conducted at the same time 1 to 3 days later, and the recording sites were relocated according to the same predefined rule.
Cutaneous red blood cell flux (RBCF), expressed as arbitrary perfusion units (PUs), was used to indicate local cutaneous blood flow, and CVC (PU/mmHg), which derived from RBCF divided by mean arterial pressure to adjust for the influence of blood pressure, was the indicator of blood flow change.
Baseline CVC, peak CVC, absolute change of peak CVC, percent change of peak CVC, 4 minutes area-under-the-curve (AUC), and time to peak flux were used as indicators of the hyperemic response during heating. The absolute change of peak CVC was defined as the peak CVC minus baseline CVC, and the percentage of peak CVC change equals to the absolute change of peak CVC divided by baseline CVC multiplied by 100%. The 4 minutes AUC was the accumulation of blood flux during the first 4 minutes of the heating period. The time to peak flux was the period from the heating started and up to peak flux.
Upon arrival in the laboratory, the subjects were arranged on chairs in a temperature- and humidity-controlled laboratory (40-60% humidity, 25±1° C.) for acclimation of 30 minutes. After the acclimation period, the thermal hyperemia test was performed at specified sampling sites. The participants were supine during the entire test period. Cutaneous blood flow was measured by LDF (Moor DRT4, Moor Instruments Ltd, Axminster, Devon, UK). For each measurement, blood pressure was recorded continuously with a non-invasive blood pressure monitor (CareTaker, Empirical Technologies Corporation, Charlottesville, Va., USA) on the middle finger of the dominant hand throughout the procedures. The sampling and data processing procedures taught in Example 1, above, also applied in the present example.
Subject (45 kg) suffering from panic disorder was sampled at the infraclavicular, parasternal and axilla sites (points (i), (j) and (l) in FIG. 2) on both the right and left sides before and after the administration of β-blocker. Specifically, the post-β-blocker sampling procedure was performed at 30 minutes after the oral administration of β-blocker, propranolol, (10 mg).

SMILES: CC(C)NCC(O)COc1cccc2ccccc12 (stereo not drawn) [propranolol]
- CVCI, max, After (Axilla, left): 1.09 PU/mmHg
- Initial AUC, After (Axilla, left): 17019 PU
- ΔCVC, After (Axilla, left): 0.92 PU/mmHg
- CVCI, max, After (Axilla, right): 1.91 PU/mmHg
- Initial AUC, After (Axilla, right): 31740 PU
- ΔCVC, After (Axilla, right): 1.63 PU/mmHg
- CVCI, max, After (Infraclavicular, left): 1.03 PU/mmHg
- Initial AUC, After (Infraclavicular, left): 17298 PU
- ΔCVC, After (Infraclavicular, left): 0.88 PU/mmHg
- CVCI, max, After (Infraclavicular, right): 1.95 PU/mmHg
- Initial AUC, After (Infraclavicular, right): 33797 PU
- ΔCVC, After (Infraclavicular, right): 1.76 PU/mmHg
- CVCI, max, After (Parasternal, left): 1.45 PU/mmHg
- Initial AUC, After (Parasternal, left): 26800 PU
- ΔCVC, After (Parasternal, left): 1.28 PU/mmHg
- CVCI, max, After (Parasternal, right): 2.53 PU/mmHg
- Initial AUC, After (Parasternal, right): 47602 PU
- ΔCVC, After (Parasternal, right): 2.36 PU/mmHg
